Measured values published in patent publication US10450549B2, “Aryloxyphenoxypropionate tolerance in turfrgass species and use of AAD1 as a selectable marker” (Dow AgroSciences, LLC, priority 2004, dated 2019).

Assays:
[1] = test system: AAD1-transformed T0 ‘Crenshaw’ creeping bentgrass events (pDAB3878, pDAB5042); assay: Quizalofop-p-ethyl postemergence on AAD1-transformed T0 Crenshaw creeping bentgrass, visual % injury; type: in vivo, Agrostis stolonifera L. var. palustris
Procedure: After molecular confirmation was utilized to identify transgenic events, a number of transgenic events were tested for herbicide tolerance. Specific isolated transgenic events were selected and maintained vegetatively through division of the crowns and replanting the clonal pieces into fresh growth medium. Clonally propagated plants were maintained by periodic “mowing” of vegetative tissues.
Growth medium was prepared by mixing Promix® and sand in a 2 to 1 ratio. The medium was contained in plastic pots with a surface area of 84.6 square centimeters (cm^2). When required to maintain plant health, a fungicide, insecticide, and/or other chemical or physical treatment was applied to stock plants. The plants were maintained in a greenhouse with an approximate 14 hour photoperiod which was maintained at 24-27° C. during the day and 22-25° C. during the night. Nutrients (Peters Excel® 15-5-15 5-Ca 2-Mg and iron chelate) were applied in the irrigation solution as needed, and water was added on a regular basis. Supplemental lighting was provided with overhead metal halide 1000-Watt lamps when photosynthetically active radiation (PAR) dropped below 500.
Selected T0 plants were sprayed with quizalofop-p-ethyl (Assure II®, DUPONT, Wilmington, Del.) at rates ranging from 60 to 2,240 g ae/ha. […] This rate also controls susceptible monocot weed species. Measured amounts were placed individually in 25 mL glass vials and dissolved in a 4 mL volume of 1.0% (v/v) Agri-Dex® Crop Oil Concentrate (COC) from HELENA CHEMICAL (Collierville, Tenn.). Application solutions were prepared by serial dilution of the highest rate applied. One-half the volume of the highest rate stock solution (2 mL) was transferred to a clean 25 mL vial containing an equal volume of 1% COC and the diluted solution was mixed. Additional dilutions were prepared similarly by removing one-half the volume of the previous concentration (2 mL), and adding to an equal volume of 1% COC and mixing. When preparing the lowest concentration, the remaining one-half volume was discarded. All 2 mL stock solutions were further diluted by adding 10 mL aqueous mixture of 1.0% (v/v) COC, so that the final spray solutions were 12 mL in volume and contained 1.0% (v/v) COC.
Spray solutions were applied to the plant material with an overhead Mandel™ track sprayer equipped with a 8002E nozzles calibrated to deliver 187 L/ha over an application area of 0.503 square meters (m^2) at a spray height of 18 inches (46 cm) above average plant canopy height. Control plants were sprayed in the same manner with the COC blank.
The treated plants and control plants were placed in a greenhouse, and watered by sub-irrigation to prevent wash-off of the test compounds. At various times after application, the condition of the test plants as compared with that of the untreated plants was determined visually and scored on a scale of 0 to 100 percent (where 0 corresponds to no injury or growth inhibition and 100 corresponds to complete kill). Regenerated, non-transformed (NT) ‘Crenshaw’ or elite line 2905-2 creeping bentgrass plants and/or seed-derived clonally propagated plants served as quizalofop sensitive controls.

[2] = biological target: AAD2 (v1) (Bradyrhizobium diazoefficiens, UniProt Q89UC4); assay: Colorimetric phenol assay of AAD2 (v1) E. coli extract / partially purified enzyme; type: biochemical, Bradyrhizobium japonicum
[3] = test system: Non-transformed hybrids; assay: Field tolerance to quizalofop and 2,4-D: non-transformed hybrids; type: in vivo, corn; conditions: 1120 g ae/ha
Description: Two field trials were established at field stations in Hawaii and Indiana. […] The hybrid Hi-II×5XH571 is of the same parentage as the AAD1 (v3) event lines. The hybrid Croplan 585SR is a sethoxydim resistant line.
The experimental design was a split-plot with four replications. The main plot was herbicide treatment and the sub-plot was AAD1 (v3) event or comparison hybrid. Plots were one row by 3.7 meters with approximately twenty-five seeds planted in each row. For AAD1 events, seeds from a different lineage within the event were planted in each replicate.
Glufosinate at 560 g ai/ha was applied to AAD1 (v3) plots at the V2 stage to eliminate non-transformed plants. […] Treatments were applied using backpack broadcast boom equipment delivering 187 L/ha carrier volume at 130-200 kpa pressure.
Quizalofop treated plots were visually assessed for crop injury at one and three weeks after application (WAA) using a 0-100% scale, where 0 equals no injury and 100 equals complete death.

CCOC(=O)[C@@H](C)Oc1ccc(Oc2cnc3cc(Cl)ccc3n2)cc1 [quizalofop-p-ethyl]
injury of events CBG12 and CBG23 ([1]; 120 g ae/ha): uninjured | injury of events CBG12 and CBG23 ([1]; 480 g ae/ha): less than 10% | Mean % Injury (SE) ([1]; event CBG2, 120 g ae/ha, 11 DAA): 30 (0) % | Mean % Injury (SE) ([1]; event CBG2, 120 g ae/ha, 14 DAA): 30 (0) % | Mean % Injury (SE) ([1]; event CBG2, 120 g ae/ha, 20 DAA): 25 (0) % | Mean % Injury (SE) ([1]; event CBG2, 480 g ae/ha, 11 DAA): 45% | Mean % Injury (SE) ([1]; event CBG2, 480 g ae/ha, 14 DAA): 45% | Mean % Injury (SE) ([1]; event CBG2, 480 g ae/ha, 20 DAA): 40% | Mean % Injury (SE) ([1]; event CBG4, 120 g ae/ha, 11 DAA): 70 (0) % | Mean % Injury (SE) ([1]; event CBG4, 120 g ae/ha, 14 DAA): 85 (0) % | Mean % Injury (SE) ([1]; event CBG4, 120 g ae/ha, 20 DAA): 90 (3) % | Mean % Injury (SE) ([1]; event CBG5, 120 g ae/ha, 11 DAA): 32 (6) % | Mean % Injury (SE) ([1]; event CBG5, 120 g ae/ha, 14 DAA): 42 (8) % | Mean % Injury (SE) ([1]; event CBG5, 120 g ae/ha, 20 DAA): 23 (7) % | Mean % Injury (SE) ([1]; event CBG5, 480 g ae/ha, 11 DAA): 30 (5) % | Mean % Injury (SE) ([1]; event CBG5, 480 g ae/ha, 14 DAA): 30 (5) % | Mean % Injury (SE) ([1]; event CBG5, 480 g ae/ha, 20 DAA): 10 (0) % | Mean % Injury (SE) ([1]; event CBG12, 120 g ae/ha, 11 DAA): 0 (0) % | Mean % Injury (SE) ([1]; event CBG12, 120 g ae/ha, 14 DAA): 0 (0) % | Mean % Injury (SE) ([1]; event CBG12, 120 g ae/ha, 20 DAA): 0 (0) % | Mean % Injury (SE) ([1]; event CBG12, 480 g ae/ha, 11 DAA): 5 (3) % | Mean % Injury (SE) ([1]; event CBG12, 480 g ae/ha, 14 DAA): 5 (3) % | Mean % Injury (SE) ([1]; event CBG12, 480 g ae/ha, 20 DAA): 5 (0) % | Mean % Injury (SE) ([1]; event CBG14, 120 g ae/ha, 11 DAA): 15 (5) % | Mean % Injury (SE) ([1]; event CBG14, 120 g ae/ha, 14 DAA): 18 (3) % | Mean % Injury (SE) ([1]; event CBG14, 120 g ae/ha, 20 DAA): 5 (5) % | Mean % Injury (SE) ([1]; event CBG14, 480 g ae/ha, 11 DAA): 30% | Mean % Injury (SE) ([1]; event CBG14, 480 g ae/ha, 14 DAA): 25% | Mean % Injury (SE) ([1]; event CBG14, 480 g ae/ha, 20 DAA): 15% | Mean % Injury (SE) ([1]; event CBG23, 120 g ae/ha, 11 DAA): 0 (0) % | Mean % Injury (SE) ([1]; event CBG23, 120 g ae/ha, 14 DAA): 0 (0) % | Mean % Injury (SE) ([1]; event CBG23, 120 g ae/ha, 20 DAA): 0 (0) % | Mean % Injury (SE) ([1]; event CBG23, 480 g ae/ha, 11 DAA): 7 (2) % | Mean % Injury (SE) ([1]; event CBG23, 480 g ae/ha, 14 DAA): 7 (3) % | Mean % Injury (SE) ([1]; event CBG23, 480 g ae/ha, 20 DAA): 0 (0) % | Mean % Injury (SE) ([1]; event CBG27, 120 g ae/ha, 11 DAA): 68 (3) % | Mean % Injury (SE) ([1]; event CBG27, 120 g ae/ha, 14 DAA): 75 (5) % | Mean % Injury (SE) ([1]; event CBG27, 120 g ae/ha, 20 DAA): 75 (5) % | Mean % Injury (SE) ([1]; event CBG27, 480 g ae/ha, 11 DAA): 85% | Mean % Injury (SE) ([1]; event CBG27, 480 g ae/ha, 14 DAA): 85% | Mean % Injury (SE) ([1]; event CBG27, 480 g ae/ha, 20 DAA): 85% | Mean % Injury (SE) ([1]; event CBG31, 120 g ae/ha, 11 DAA): 0% | Mean % Injury (SE) ([1]; event CBG31, 120 g ae/ha, 14 DAA): 5% | Mean % Injury (SE) ([1]; event CBG31, 120 g ae/ha, 20 DAA): 0% | Mean % Injury (SE) ([1]; event CBG32, 120 g ae/ha, 11 DAA): 5 (0) % | Mean % Injury (SE) ([1]; event CBG32, 120 g ae/ha, 14 DAA): 0 (0) % | Mean % Injury (SE) ([1]; event CBG32, 120 g ae/ha, 20 DAA): 0 (0) % | Mean % Injury (SE) ([1]; event CBG32, 480 g ae/ha, 11 DAA): 20% | Mean % Injury (SE) ([1]; event CBG32, 480 g ae/ha, 14 DAA): 20% | Mean % Injury (SE) ([1]; event CBG32, 480 g ae/ha, 20 DAA): 5% | Mean % Injury (SE) ([1]; event CBG33, 120 g ae/ha, 11 DAA): 8 (3) % | Mean % Injury (SE) ([1]; event CBG33, 120 g ae/ha, 14 DAA): 10 (0) % | Mean % Injury (SE) ([1]; event CBG33, 120 g ae/ha, 20 DAA): 5 (0) % | Mean % Injury (SE) ([1]; event CBG33, 480 g ae/ha, 11 DAA): 15% | Mean % Injury (SE) ([1]; event CBG33, 480 g ae/ha, 14 DAA): 15% | Mean % Injury (SE) ([1]; event CBG33, 480 g ae/ha, 20 DAA): 15% | Mean % Injury (SE) ([1]; event CBG38, 120 g ae/ha, 11 DAA): 14 (1) % | Mean % Injury (SE) ([1]; event CBG38, 120 g ae/ha, 14 DAA): 13 (3) % | Mean % Injury (SE) ([1]; event CBG38, 120 g ae/ha, 20 DAA): 6 (1) % | Mean % Injury (SE) ([1]; event CBG38, 480 g ae/ha, 11 DAA): 22 (4) % | Mean % Injury (SE) ([1]; event CBG38, 480 g ae/ha, 14 DAA): 22 (4) % | Mean % Injury (SE) ([1]; event CBG38, 480 g ae/ha, 20 DAA): 13 (2) %

O=C(O)COc1ccc(Cl)cc1Cl [2,4-D, 2,4-dichlorophenoxyacetic acid]
Vmax (A510 units) ([2]; AAD2 (pDAB3202), MOPS pH 6.75): 0.86 A510 units | apparent Vmax, AAD2 (v1) ([2]; partially purified enzyme): 0.86 A510 units | epinastic leaning in non-transformed hybrids ([3]; 2 DAA): 11-33% | brace root deformation rating (0-10 scale) ([3]; non-transformed hybrids, 3-4 WAA): 9
